Reference: the NIST ThermoML archive (doi:10.1016/j.fluid.2013.06.044)
Numbers after ± are expanded uncertainties.

Key:
[1] = Liquid, Closed cell (Static) method
[2] = refractive index (Na D-line) (dimensionless); conditions: 298.15 K; 101.33 kPa; Liquid; Standard Abbe refractometry

Row | vapor or sublimation pressure ([1]; 336.67 K) [kPa] | vapor or sublimation pressure ([1]; 350.33 K) [kPa] | vapor or sublimation pressure ([1]; 350.35 K) [kPa] | vapor or sublimation pressure ([1]; 350.41 K) [kPa] | refractive index [2] | vapor or sublimation pressure ([1]; 350.4 K) [kPa] | vapor or sublimation pressure ([1]; 350.36 K) [kPa] | SMILES
1 | 232.9 ± 1 | 340.4 ± 1.4 | 340.3 ± 0.9 | 340.4 ± 0.9 | 1.43127 ± 0.00031 | – | – | CSC [2-thiapropane]
2 | 1576.5 ± 6.2 | – | – | – | – | – | – | COC [dimethyl ether]
3 | – | – | – | – | 1.35959 ± 0.00037 | 96.5 ± 0.9 | – | CCO [ethanol]
4 | – | – | – | – | 1.3589 ± 0.00036 | – | 196 ± 1 | COC(C)=O [methyl ethanoate]
